Laboratory results as given in patent US12251422B2, “Compositions and methods for treating neurological and other disorders” (Rush University Medical Center, priority 2018, dated 2025).

Tests used:
[1] = tested on: A53T α-syn Tg mice; assay: α-Synucleinopathy in A53T α-syn Tg mice; assay type: in vivo, mouse; details: 0.1 mg/kg body wt/d intranasal, 30 d
Method: (§1) FIG. 28 (A-B). Intranasal wtTIDM peptide attenuates microglial inflammation in the nigra of A53T α-syn Tg mice. A53T mice (male; 9-month old; n=6 per group) were treated with TIDM peptides via intranasal route at a dose of 0.1 mg/kg body wt/d for 30 d followed by double-label immunofluorescence analysis of nigral sections for Iba-1 and inducible nitric oxide synthase (iNOS) (A). Magnified images of selected area are shown at the bottom row. The iNOS (+ve) cells were counted in two sections of each of six mice per group and presented as cells/mm2.
as §1, with “29” for “28”, “stimulates” for “attenuates”, “expression of arginase-1” for “inflammation”, “arginase-1 (ARG1)” for “inducible nitric oxide synthase (iNOS)”, “ARG-1” for “iNOS”
FIG. 30 (A-C). Intranasal wtTIDM peptide reduces α-synucleinopathy in the nigra of A53T α-syn Tg mice. A53T mice (male; 9-month old; n=6 per group) were treated with TIDM peptides via intranasal route at a dose of 0.1 mg/kg body wt/d for 30 d followed by Western blot analysis of nigral extracts for α-syn (A). Bands were scanned and presented as relative to A53T control (B, monomeric α-syn; C, oligomeric α-syn). Results are mean+SEM of six mice per group.
(§2) FIG. 31 (A-D). Intranasal wtTIDM peptide reduces α-synucleinopathy in the nigra of A53T α-syn Tg mice. A53T mice (male; 9-month old; n=6 per group) were treated with TIDM peptides via intranasal route at a dose of 0.1 mg/kg body wt/d for 30 d followed by double-label immunofluorescence analysis of nigral sections for TH and α-syn (mjfr1 Ab) (A). Magnified images of selected area are shown at the leftmost column. Total area (B), average size (C) and integrated density (D) of α-syn-positive cell bodies were calculated. Five cells from each of two nigral sections of six mice per group were analyzed.
as §2, with “FIG. 32 (A-B).” for “FIG. 31 (A-D).”, “for microglial marker Iba-1” for “for TH”, “column. Mean fluorescence intensity (MFI)” for “column. Total area (B), average size (C) and integrated density (D)”, “of (α-syn+Iba-1)-positive” for “of α-syn-positive”, “bodies was” for “bodies were”
FIG. 33 (A-E). Intranasal wtTIDM peptide improve locomotor activities of A53T α-syn Tg mice. A53T mice (male; 9-month old; n=6 per group) were treated with TIDM peptides via intranasal route at a dose of 0.1 mg/kg body wt/d for 30 d followed by monitoring locomotor activities by the Ethovision XT 13.0 Open Field Activity System (Noldus) (A, track plot; B, moving cumulative duration; C, distance; D, velocity; E, rotorod). Results are mean+SEM of six mice per group.

[2] = tested on: NF-κB; assay: NF-κB activation by EMSA in BV-2 microglial cells; assay type: cell-based
Method: FIG. 4(A-S). Effect of wtTIDM and mTIDM peptides on the induction of NF-κB activation and the expression of proinflammatory molecules in microglial cells. BV-2 microglial cells preincubated with 10 μM wtTIDM/mTIDM peptides for 1 h were stimulated with 1 μM fibrillar Aβ1-42 (A-C), 1 μM MPP+ (D-F), 250 ng/ml LTA (G-I), […] LPS (J-L), 1 μM flagellin (M-O), and 1 μM CpG DNA (P-R) under serum-free condition. After 1 h of stimulation, the activation of NF-κB was monitored in nuclear extracts by EMSA (A, fibrillar Aβ; D, MPP+; G, LTA; J, LPS; M, flagellin, P; CpG DNA). After 4 h of stimulation, the mRNA expression of IL-1β (B, E, H, K, N, & Q) and iNOS (C, F, I, L, O, & R) was monitored by real-time PCR (B-C, fibrillar Aβ; E-F, MPP+; H-I, LTA; K-L, LPS; N-O, flagellin; Q-R, CpG DNA) (n=2 replicates/dose in 3 independent experiments). ap<0.001 vs control; bp<0.001 vs stimuli by two-sample t-tests. FIG. 4S is a schematic representation of the relationships in microglia of Toll-Like Receptors, the stimulators tested, wTIDM, MyD88 and NF-κB.
FIG. 14 (A-D). Effect of wtTIDM and mTIDM peptides on polyIC-mediated activation of NF-κB activation and the expression of proinflammatory molecules in microglial cells. BV-2 microglial cells preincubated with 10 μM wtTIDM/mTIDM peptides for 1 h were stimulated with 50 μM polyIC. A) After 1 h of stimulation, the activation of NF-κB was monitored in nuclear extracts by EMSA. After 4 h of stimulation, the mRNA expression of IL-1β and iNOS was monitored by semi-quantitative RT-PCR (B) and real-time PCR (C, IL-1β; D, iNOS) (n=2 replicates/condition in 3 independent experiments). ap<0.001 vs control; bp<0.001 vs stimuli by two-sample t-tests.
Nuclear extracts were isolated and EMSA was carried out as described before (22, 23).

[3] = biological target: T1, cTLR2 protein (Mus musculus, UniProt Q9QUN7); assay: Thermal shift assay of cTLR2 with TIDM peptides; assay type: binding; details: 10 μM peptide
T1 construct: The cTLR2 (640-784 amino acids) tagged with c-myc was cloned in lenti vector; made in house; host or cells: HEK293 cells (lentiviral expression)
Method: Thermal shift assays were performed in an Applied Biosystems 7500 standard real-time thermal cycler machine as described before (52, 53). For each reaction, purified protein (0.5 μg to 1 μg) was added to 18 μL of thermal shift buffer provided with the kit, and 1-2 μL of dye. Reaction was set 96 well PCR plate in the dark and then placed in the thermal cycler machine using the following two-stage program [(25° C. for 2 mins) 1 cycle; ([…]) 70 cycles; auto increment 1° C. for both stages]. The filter was set at ROX with no quencher filter and no passive filter.

T1 sequence (Q9QUN7 640-784): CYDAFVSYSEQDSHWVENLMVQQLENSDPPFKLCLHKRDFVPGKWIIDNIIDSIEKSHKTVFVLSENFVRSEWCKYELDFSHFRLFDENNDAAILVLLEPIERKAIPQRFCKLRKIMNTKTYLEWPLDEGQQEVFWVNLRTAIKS

SMILES | arginase-1 in the nigra [1] | locomotor activities of A53T mice [1] | microglial expression of iNOS in the nigra [1] | microglial α-syn in the nigra [1] | oligomeric and monomeric α-syn [1] | α-syn inclusion bodies within tyrosine hydroxylase-positive dopaminergic neurons [1] | inhibition of LTA-mediated activation of NF-κB ([2]; 10 μM peptide 1 h, then 250 ng/ml LTA for 1 h) | suppression of NF-κB activation induced by CpG DNA ([2]; 10 μM peptide 1 h, then 1 μM CpG DNA for 1 h) | suppression of NF-κB activation induced by MPP+ ([2]; 10 μM peptide 1 h, then 1 μM MPP+ for 1 h) | inhibition of fibrillar Aβ-mediated activation of NF-κB ([2]; 10 μM peptide 1 h, then 1 μM fibrillar Aβ1-42 for 1 h) | suppression of NF-κB activation induced by flagellin ([2]; 10 μM peptide 1 h, then 1 μM flagellin for 1 h) | suppression of NF-κB activation induced by poly IC ([2]; 10 μM peptide 1 h, then 50 μM polyIC for 1 h) | suppression of NF-κB activation induced by LPS ([2]; 10 μM peptide 1 h, then 1 mg/ml LPS for 1 h) | shift (ΔTm) of melting temperature of cTLR2 [3] [°C] | protective effect in A53T mice (all readouts) [1] | effect on activation of NF-κB induced by any of the stimuli ([2]; fibrillar Aβ, MPP+, LTA, poly IC, LPS, flagellin, CpG DNA)
CC[C@H](C)[C@H](NC(=O)[C@H](CCCCN)NC(=O)[C@@H](NC(=O)[C@H](CCC(N)=O)NC(=O)[C@H](CCCNC(=N)N)NC(=O)[C@@H](N)CC(=O)O)[C@@H](C)CC)C(=O)N[C@@H](Cc1c[nH]c2ccccc12)C(=O)N[C@@H](Cc1ccccc1)C(=O)N[C@@H](CCC(N)=O)C(=O)N[C@@H](CC(N)=O)C(=O)N[C@@H](CCCNC(=N)N)C(=O)N[C@@H](CCCNC(=N)N)C(=O)N[C@@H](CCSC)C(=O)N[C@@H](CCCCN)C(=O)N[C@@H](Cc1c[nH]c2ccccc12)C(=O)N[C@@H](CCCCN)C(=O)N[C@@H](CCCCN)C(=O)N1CCC[C@H]1C(=O)NCC(=O)N[C@@H](C)C(=O)N[C@@H](Cc1c[nH]cn1)C(=O)N[C@@H](CCC(N)=O)C(=O)N[C@@H](CCCCN)C(=O)O [wtTIDM, drqikiwfqnrrmkwkkPGAHQK] | increase | improved | reduced | decrease | reduction | suppression | inhibited | remained unable to suppress | remained unable to suppress | inhibited | remained unable to suppress | remained unable to suppress | remained unable to suppress | 4.96 | – | –
CC[C@H](C)[C@H](NC(=O)[C@H](CCCCN)NC(=O)[C@@H](NC(=O)[C@H](CCC(N)=O)NC(=O)[C@H](CCCNC(=N)N)NC(=O)[C@@H](N)CC(=O)O)[C@@H](C)CC)C(=O)N[C@@H](Cc1c[nH]c2ccccc12)C(=O)N[C@@H](Cc1ccccc1)C(=O)N[C@@H](CCC(N)=O)C(=O)N[C@@H](CC(N)=O)C(=O)N[C@@H](CCCNC(=N)N)C(=O)N[C@@H](CCCNC(=N)N)C(=O)N[C@@H](CCSC)C(=O)N[C@@H](CCCCN)C(=O)N[C@@H](Cc1c[nH]c2ccccc12)C(=O)N[C@@H](CCCCN)C(=O)N[C@@H](CCCCN)C(=O)N1CCC[C@H]1C(=O)NCC(=O)N[C@@H](Cc1c[nH]c2ccccc12)C(=O)N[C@@H](Cc1c[nH]cn1)C(=O)N[C@@H](CCC(N)=O)C(=O)N[C@@H](CC(=O)O)C(=O)O [mTIDM, drqikiwfqnrrmkwkkPGWHQD] | – | – | – | – | – | – | – | – | – | – | – | – | – | 0.87 | did not exhibit any such protective effect | had no effect
